Columns and labels:
Experiment in all cases: relative viability (nuclei count vs DMSO), 5 days (fraction); higher = more cells survive
[1] = compound: C1=CC2=C(C=C(C(=C2N=C1)O)N=NC3=CC4=C(C=C3)C=C(C=C4)S(=O)(=O)O)S(=O)(=O)O + O=C(c1cc(Cc2n[nH]c(=O)c3ccccc23)ccc1F)N1CCN(C(=O)C2CC2)CC1 [Olaparib] (partner 8 µM)
How it was run: (§1)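 Five library-drug doses in √10 steps were combined with a fixed anchor-drug dose, or a single drug was given alone, by pin tool to lung cancer cell lines in 1536-well plates the day after seeding. Nuclei were stained and counted after 5 days. Relative viability is the nuclei count in treated wells over that in vehicle wells, taken as the median of duplicate plates.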

AT-7519 + Vorinostat = compound: O=C(NC1CCNCC1)c1n[nH]cc1NC(=O)c1c(Cl)cccc1Cl [AT-7519] + O=C(CCCCCCC(=O)Nc1ccccc1)NO [Vorinostat] (partner 1 µM)
How it was run: as §1

[2] = compound: C1=CC2=C(C=C(C(=C2N=C1)O)N=NC3=CC4=C(C=C3)C=C(C=C4)S(=O)(=O)O)S(=O)(=O)O + Nc1nc2[nH]cc(CCc3ccc(C(=O)N[C@@H](CCC(=O)O)C(=O)O)cc3)c2c(=O)[nH]1 [Pemetrexed] (partner 0.2 µM)
How it was run: as §1

AT-7519 + Pictilisib = compound: O=C(NC1CCNCC1)c1n[nH]cc1NC(=O)c1c(Cl)cccc1Cl [AT-7519] + CS(=O)(=O)N1CCN(Cc2cc3nc(-c4cccc5[nH]ncc45)nc(N4CCOCC4)c3s2)CC1 [Pictilisib] (partner 1 µM)
How it was run: as §1

For HCC-827, the relative viability ([1]; first compound 0.08 µM) was 0.68, the relative viability ([1]; first compound 0.253 µM) was 0.524 and the relative viability ([1]; first compound 0.8 µM) was 0.647. For the same cell line, the relative viability ([1]; first compound 2.53 µM) was 0.568, the relative viability ([1]; first compound 8 µM) was 0.687 and the relative viability (AT-7519 + Vorinostat; first compound 0.01 µM) was 0.928. For the same cell line, the relative viability (AT-7519 + Vorinostat; first compound 0.03162 µM) was 0.827, the relative viability (AT-7519 + Vorinostat; first compound 0.3162 µM) was 0.958 and the relative viability (AT-7519 + Vorinostat; first compound 1 µM) was 1.02. It also gave a relative viability ([2]; first compound 0.08 µM) of 0.269, a relative viability ([2]; first compound 0.253 µM) of 0.21 and a relative viability ([2]; first compound 0.8 µM) of 0.296. For the same cell line, the relative viability ([2]; first compound 2.53 µM) was 0.224, the relative viability ([2]; first compound 8 µM) was 0.246 and the relative viability (AT-7519 + Pictilisib; first compound 0.01 µM) was 1.15. For the same cell line, the relative viability (AT-7519 + Pictilisib; first compound 0.03162 µM) was 0.875, the relative viability (AT-7519 + Pictilisib; first compound 0.3162 µM) was 0.819 and the relative viability (AT-7519 + Pictilisib; first compound 1 µM) was 0.9.

HOP-62 showed a relative viability ([1]; first compound 0.08 µM) of 0.403, a relative viability ([1]; first compound 0.253 µM) of 0.376 and a relative viability ([1]; first compound 0.8 µM) of 0.312. The relative viability ([1]; first compound 2.53 µM) was 0.465, the relative viability ([1]; first compound 8 µM) was 0.516 and the relative viability (AT-7519 + Vorinostat; first compound 0.01 µM) was 0.555. It also gave a relative viability (AT-7519 + Vorinostat; first compound 0.03162 µM) of 0.608, a relative viability (AT-7519 + Vorinostat; first compound 0.3162 µM) of 0.682 and a relative viability (AT-7519 + Vorinostat; first compound 1 µM) of 0.565. It also gave a relative viability ([2]; first compound 0.08 µM) of 0.263, a relative viability ([2]; first compound 0.253 µM) of 0.279 and a relative viability ([2]; first compound 0.8 µM) of 0.312. The relative viability ([2]; first compound 2.53 µM) was 0.349, the relative viability ([2]; first compound 8 µM) was 0.325 and the relative viability (AT-7519 + Pictilisib; first compound 0.01 µM) was 0.817. For the same cell line, the relative viability (AT-7519 + Pictilisib; first compound 0.03162 µM) was 0.742, the relative viability (AT-7519 + Pictilisib; first compound 0.3162 µM) was 0.486 and the relative viability (AT-7519 + Pictilisib; first compound 1 µM) was 0.293.

With IA-LM the relative viability ([1]; first compound 0.08 µM) was 1.01, the relative viability ([1]; first compound 0.253 µM) was 0.777 and the relative viability ([1]; first compound 0.8 µM) was 0.788. For the same cell line, the relative viability ([1]; first compound 2.53 µM) was 0.747, the relative viability ([1]; first compound 8 µM) was 0.952 and the relative viability (AT-7519 + Vorinostat; first compound 0.01 µM) was 0.607. For the same cell line, the relative viability (AT-7519 + Vorinostat; first compound 0.03162 µM) was 0.501, the relative viability (AT-7519 + Vorinostat; first compound 0.3162 µM) was 1.01 and the relative viability (AT-7519 + Vorinostat; first compound 1 µM) was 0.723. The relative viability (AT-7519 + Pictilisib; first compound 0.01 µM) was 0.31, the relative viability (AT-7519 + Pictilisib; first compound 0.03162 µM) was 0.328 and the relative viability (AT-7519 + Pictilisib; first compound 0.3162 µM) was 0.191. For the same cell line, the relative viability (AT-7519 + Pictilisib; first compound 1 µM) was 0.0278.

With LC-2-ad the relative viability ([1]; first compound 0.08 µM) was 0.72, the relative viability ([1]; first compound 0.253 µM) was 0.671 and the relative viability ([1]; first compound 0.8 µM) was 0.749. For the same cell line, the relative viability ([1]; first compound 2.53 µM) was 0.683, the relative viability ([1]; first compound 8 µM) was 0.744 and the relative viability (AT-7519 + Vorinostat; first compound 0.01 µM) was 0.717. It also gave a relative viability (AT-7519 + Vorinostat; first compound 0.03162 µM) of 0.665, a relative viability (AT-7519 + Vorinostat; first compound 0.3162 µM) of 0.748 and a relative viability (AT-7519 + Vorinostat; first compound 1 µM) of 0.781. It also gave a relative viability ([2]; first compound 0.08 µM) of 0.28, a relative viability ([2]; first compound 0.253 µM) of 0.278 and a relative viability ([2]; first compound 0.8 µM) of 0.265. It also gave a relative viability ([2]; first compound 2.53 µM) of 0.261, a relative viability ([2]; first compound 8 µM) of 0.274 and a relative viability (AT-7519 + Pictilisib; first compound 0.01 µM) of 0.653. For the same cell line, the relative viability (AT-7519 + Pictilisib; first compound 0.03162 µM) was 0.366, the relative viability (AT-7519 + Pictilisib; first compound 0.3162 µM) was 0.386 and the relative viability (AT-7519 + Pictilisib; first compound 1 µM) was 0.158.

LCLC-97TM1 was tested, and the relative viability ([1]; first compound 0.08 µM) was 0.41, the relative viability ([1]; first compound 0.253 µM) was 0.38 and the relative viability ([1]; first compound 0.8 µM) was 0.432. For the same cell line, the relative viability ([1]; first compound 2.53 µM) was 0.338, the relative viability ([1]; first compound 8 µM) was 0.32 and the relative viability (AT-7519 + Vorinostat; first compound 0.01 µM) was 0.955. For the same cell line, the relative viability (AT-7519 + Vorinostat; first compound 0.03162 µM) was 0.703, the relative viability (AT-7519 + Vorinostat; first compound 0.3162 µM) was 0.526 and the relative viability (AT-7519 + Vorinostat; first compound 1 µM) was 0.379. The relative viability ([2]; first compound 0.08 µM) was 0.173, the relative viability ([2]; first compound 0.253 µM) was 0.18 and the relative viability ([2]; first compound 0.8 µM) was 0.157. For the same cell line, the relative viability ([2]; first compound 2.53 µM) was 0.156, the relative viability ([2]; first compound 8 µM) was 0.161 and the relative viability (AT-7519 + Pictilisib; first compound 0.01 µM) was 0.196. For the same cell line, the relative viability (AT-7519 + Pictilisib; first compound 0.03162 µM) was 0.176, the relative viability (AT-7519 + Pictilisib; first compound 0.3162 µM) was 0.211 and the relative viability (AT-7519 + Pictilisib; first compound 1 µM) was 0.152.

With LCLC-103H the relative viability ([1]; first compound 0.08 µM) was 0.774, the relative viability ([1]; first compound 0.253 µM) was 0.721 and the relative viability ([1]; first compound 0.8 µM) was 0.735. It also gave a relative viability ([1]; first compound 2.53 µM) of 0.779, a relative viability ([1]; first compound 8 µM) of 0.753 and a relative viability (AT-7519 + Vorinostat; first compound 0.01 µM) of 0.848. The relative viability (AT-7519 + Vorinostat; first compound 0.03162 µM) was 0.774, the relative viability (AT-7519 + Vorinostat; first compound 0.3162 µM) was 0.768 and the relative viability (AT-7519 + Vorinostat; first compound 1 µM) was 0.814. The relative viability ([2]; first compound 0.08 µM) was 0.505, the relative viability ([2]; first compound 0.253 µM) was 0.459 and the relative viability ([2]; first compound 0.8 µM) was 0.493. It also gave a relative viability ([2]; first compound 2.53 µM) of 0.439, a relative viability ([2]; first compound 8 µM) of 0.453 and a relative viability (AT-7519 + Pictilisib; first compound 0.01 µM) of 0.624. The relative viability (AT-7519 + Pictilisib; first compound 0.03162 µM) was 0.517, the relative viability (AT-7519 + Pictilisib; first compound 0.3162 µM) was 0.488 and the relative viability (AT-7519 + Pictilisib; first compound 1 µM) was 0.557.

With LK-2 the relative viability ([1]; first compound 0.08 µM) was 0.892, the relative viability ([1]; first compound 0.253 µM) was 0.678 and the relative viability ([1]; first compound 0.8 µM) was 0.581. It also gave a relative viability ([1]; first compound 2.53 µM) of 0.74, a relative viability ([1]; first compound 8 µM) of 0.728 and a relative viability (AT-7519 + Vorinostat; first compound 0.01 µM) of 0.247. It also gave a relative viability (AT-7519 + Vorinostat; first compound 0.03162 µM) of 0.258, a relative viability (AT-7519 + Vorinostat; first compound 0.3162 µM) of 0.332 and a relative viability (AT-7519 + Vorinostat; first compound 1 µM) of 0.241. It also gave a relative viability ([2]; first compound 0.08 µM) of 0.312, a relative viability ([2]; first compound 0.253 µM) of 0.224 and a relative viability ([2]; first compound 0.8 µM) of 0.212. It also gave a relative viability ([2]; first compound 2.53 µM) of 0.269, a relative viability ([2]; first compound 8 µM) of 0.283 and a relative viability (AT-7519 + Pictilisib; first compound 0.01 µM) of 0.785. It also gave a relative viability (AT-7519 + Pictilisib; first compound 0.03162 µM) of 0.503, a relative viability (AT-7519 + Pictilisib; first compound 0.3162 µM) of 0.497 and a relative viability (AT-7519 + Pictilisib; first compound 1 µM) of 0.265.

LOU-NH91 was tested, and the relative viability ([1]; first compound 0.08 µM) was 1.01, the relative viability ([1]; first compound 0.253 µM) was 0.907 and the relative viability ([1]; first compound 0.8 µM) was 0.927. The relative viability ([1]; first compound 2.53 µM) was 0.881, the relative viability ([1]; first compound 8 µM) was 0.919 and the relative viability (AT-7519 + Vorinostat; first compound 0.01 µM) was 0.932. The relative viability (AT-7519 + Vorinostat; first compound 0.03162 µM) was 1, the relative viability (AT-7519 + Vorinostat; first compound 0.3162 µM) was 0.897 and the relative viability (AT-7519 + Vorinostat; first compound 1 µM) was 0.82. For the same cell line, the relative viability ([2]; first compound 0.08 µM) was 0.365, the relative viability ([2]; first compound 0.253 µM) was 0.38 and the relative viability ([2]; first compound 0.8 µM) was 0.393. For the same cell line, the relative viability ([2]; first compound 2.53 µM) was 0.361, the relative viability ([2]; first compound 8 µM) was 0.36 and the relative viability (AT-7519 + Pictilisib; first compound 0.01 µM) was 0.551. It also gave a relative viability (AT-7519 + Pictilisib; first compound 0.03162 µM) of 0.536, a relative viability (AT-7519 + Pictilisib; first compound 0.3162 µM) of 0.516 and a relative viability (AT-7519 + Pictilisib; first compound 1 µM) of 0.479.

LU99A was tested, and the relative viability ([1]; first compound 0.08 µM) was 0.264, the relative viability ([1]; first compound 0.253 µM) was 0.282 and the relative viability ([1]; first compound 0.8 µM) was 0.286. For the same cell line, the relative viability ([1]; first compound 2.53 µM) was 0.257, the relative viability ([1]; first compound 8 µM) was 0.243 and the relative viability (AT-7519 + Vorinostat; first compound 0.01 µM) was 0.481. The relative viability (AT-7519 + Vorinostat; first compound 0.03162 µM) was 0.462, the relative viability (AT-7519 + Vorinostat; first compound 0.3162 µM) was 0.469 and the relative viability (AT-7519 + Vorinostat; first compound 1 µM) was 0.448. It also gave a relative viability ([2]; first compound 0.08 µM) of 0.161, a relative viability ([2]; first compound 0.253 µM) of 0.401 and a relative viability ([2]; first compound 0.8 µM) of 0.183. It also gave a relative viability ([2]; first compound 2.53 µM) of 0.181, a relative viability ([2]; first compound 8 µM) of 0.19 and a relative viability (AT-7519 + Pictilisib; first compound 0.01 µM) of 0.365. For the same cell line, the relative viability (AT-7519 + Pictilisib; first compound 0.03162 µM) was 0.307, the relative viability (AT-7519 + Pictilisib; first compound 0.3162 µM) was 0.283 and the relative viability (AT-7519 + Pictilisib; first compound 1 µM) was 0.251.

Source: the supplement of paper PMC10307832
